pEC50: −log10 of the molar value. Activity calls are given as the source filed them.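 How the source made its calls: active means growth-inhibition EC50 no more than tenfold above the top tested dose; inconclusive means flat fit between 30% and 70% inhibition, or unreliable fit; inactive means EC50 more than tenfold above the top tested dose.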

This test has as its system E. coli NEB5alpha growth, BacTiter-Glo luminescence, 4 h. The test can be described thus: Escherichia coli growth inhibition, dose response, counter-screen for MEX-5/POS-1 RNA-binding inhibitor project, luminescence, NEB5alpha (AID 1959).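 Further: pUC19-transformed ampicillin-resistant cells grown in LB with ampicillin.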
For `CCN1CCN(Cc2c(O)ccc3c2O/C(=C\c2ccccc2)C3=O)CC1`, the EC50 was > 11 µM (inactive). The same measure, in the same setting: for `CN1CCN(C2=C(Cl)C(=O)C(c3cnc(N4CCCCC4)s3)=C(Cl)C2=O)CC1` the value was > 11 µM (inactive); for `COC(=O)Cn1cc(/C=C2\C(=O)NC(=O)N(c3ccccc3)C2=O)c2ccccc21`, > 11 µM (inactive).

Regarding `Cc1n[nH]c(=O)nc1N/N=C/c1ccc(O)c([N+](=O)[O-])c1`, the EC50 is > 11 µM (inactive).

For the compound `C/C(=N\Nc1ccc([N+](=O)[O-])cc1[N+](=O)[O-])c1cc2c(ccc3ccccc32)oc1=O`, the EC50 is > 11 µM (inactive). On the same count and under the same terms, the value for `N#CC1=C(N)OC2=C(C(=O)CCC2)C1c1cc2c(cc1Cl)OCO2` (stereo not drawn) was > 11 µM (inactive); that for `O=C/C(=C\Nc1ccccn1)c1nc2cc(Cl)ccc2o1` was > 11 µM (inactive). For `COc1cc2ccccc2cc1C(=O)NC(=S)Nc1cc(C(=O)O)ccc1C`, the EC50 is > 11 µM (inactive). As for `CCN(CC)C(=O)c1cc2c(=O)c3cc(Cl)ccc3oc2nc1C`, the EC50 was > 11 µM (inactive). On the same count and under the same terms, the value for `Cc1ccc(/C=C2\C(=O)NC(=O)N(CC3CCCO3)C2=O)s1` (stereo not drawn) was > 11 µM (inactive); that for `Cn1c(O)c(/C=C2\C=Nc3ccccc32)c(=O)n(C)c1=O` was > 11 µM (inactive). In the case of `CN(C)c1ccnc(Oc2ccc(Cl)cc2)c1C#N`, the EC50 was > 11 µM (inactive). With `Cc1cc(C)cc(N2C(=O)NC(=O)/C(=C\c3cccn3-c3ccc(Cl)cc3)C2=O)c1`, the EC50 is > 11 µM (inactive). Regarding `CC(C)OCC(O)CN1CCN(CCN2C(=O)c3cccc4cccc(c34)C2=O)CC1` (stereo not drawn), the EC50 is > 11 µM (inactive). Same read-out and setting: for `CN1CCc2cc3c(c4c2[C@H]1[C@H](O)c1ccccc1-4)OCO3` the value was > 11 µM (inactive); for `Cc1ccc(/C=C/C(=O)O)cc1S(=O)(=O)N1CCCCC1`, > 11 µM (inactive); for `CCOC(=O)C1Nc2c(F)cc(C)cc2C2C=CCC12` (stereo not drawn), > 11 µM (inactive). The same measure, in the same setting: for `O=C1OCc2cc(-n3cccc3)ccc21` the value was > 11 µM (inactive); for `O=C(O)c1ccc(-n2cccc2)cc1O`, > 11 µM (inactive); for `Cc1noc(/C=C/N(C)C)c1S(=O)(=O)N1CCC(C(=O)O)CC1`, > 11 µM (inactive).

Regarding `COCCCNC(=O)C(C#N)c1nc2ccccc2nc1N1CCCC1` (stereo not drawn), the EC50 is > 11 µM (inactive). Consider `Cc1cc(-c2ccccc2)nc(N/N=C/c2ccc(O)cc2O)n1`, for which the EC50 is > 11 µM (inactive). Still for that read-out and setting: for `COc1ccc(C2C(C(C)=O)=C(C)N=c3s/c(=C\c4cc(C)n(C)c4C)c(=O)n32)c(OC)c1` (stereo not drawn) the value was > 11 µM (inactive); for `COc1ccc(/C=C/c2nc3sc4c(c3c(=O)o2)CCC4)cc1`, > 11 µM (inactive); for `Cc1cc(C)c(S(=O)(=O)Nc2cc(SCC(=O)O)c(O)c3ccccc23)cc1C`, > 11 µM (inactive).

Consider `COc1cc(C(CC(=O)N2CCCC2)c2c(OC)cc(OC)c3ccc(=O)oc23)cc(OC)c1OC` (stereo not drawn), for which the EC50 was > 11 µM (inactive). For the compound `O=C(O)C1Nc2c(cccc2C(F)(F)F)C2C=CCC12` (stereo not drawn), the EC50 was > 11 µM (inactive).

Take `COC(=O)c1ccc(C23CC4(C2)[C@H](CN(Cc2ccc(C(F)(F)F)cc2)[C@@H]4c2ccccc2)C3c2ccccc2)cc1` (stereo partly drawn): the EC50 was > 11 µM (inactive). Same read-out and setting: the value for `O=C(CNS(=O)(=O)c1ccc([N+](=O)[O-])cc1)N/N=C/c1ccc(O)cc1O` was > 11 µM (inactive); that for `Cn1c(O)c(/C=C2\C=Nc3ccc(Br)cc32)c(=O)n(C)c1=O` was > 11 µM (inactive); that for `Fc1ccc2c(c1)C1C=CCC1C(c1cc3c(cc1Br)OCO3)N2` (stereo not drawn) was > 11 µM (inactive). Still for that read-out and setting: for `Cc1ccc2cc(/C=C(\C#N)C(N)=O)c(N3CCCCC3)nc2c1` the value was > 11 µM (inactive). On the same count and under the same terms, for `COc1ccc(C(=O)Nc2cc(C(C)=O)c(/C=C/N(C)C)oc2=O)cc1` the value was > 11 µM (inactive). `Cc1ccc(S(=O)(=O)C(C#N)c2nc3ccccc3nc2N2CC(C)OC(C)C2)cc1C` (stereo not drawn): the EC50 was > 11 µM (inactive). The same measure, in the same setting: for `CC(=O)NC1=NC(=O)/C(=C/c2cc(C)n(-c3cccc(C(=O)O)c3)c2C)S1` the value was > 11 µM (inactive); for `CNC(=O)c1c(NC(=O)c2ccc(S(=O)(=O)N3CCCc4ccccc43)cc2)sc2c1CCN(C)C2`, > 11 µM (inactive). On the same count and under the same terms, for `CCN(C(=O)c1cc(Cl)ccc1OC)C1CCCCC1` the value was > 11 µM (inactive); for `CCOC(=O)N1CCN(C2=Nc3cccc4cccc2c34)CC1`, > 11 µM (inactive). The same measure, in the same setting: the value for `Cc1cc(NS(=O)(=O)c2ccc(Nc3nc(-c4sc(N)nc4C)cs3)cc2)no1` was > 11 µM (inactive); that for `CCCCC1=CC2=CC(=O)C(C)(OC(=O)c3ccc(Cl)nc3)C(=O)C2=CO1` (stereo not drawn) was > 11 µM (inactive); that for `COc1c(/C=C2/C(=O)NC(=O)N(C)C2=O)c(CCN(C)C(=O)c2ccccc2)cc2c1OCO2` was > 11 µM (inactive). Take `CC(C)CNC(=O)c1ccc(C2SCC(=O)N2Cc2ccccc2)cc1` (stereo not drawn): the EC50 was > 11 µM (inactive). Regarding `C(#Cc1ccc2c(c1)COc1c3ccccc3nn1-2)c1ccccc1`, the EC50 is > 11 µM (inactive).

Take `CCCC[n+]1ccn(C2=C([O-])c3ccccc3C(=O)/C2=N\S(=O)(=O)c2ccc(Cl)cc2)c1`: the EC50 was > 11 µM (inactive). The same measure, in the same setting: for `CCOC(=O)C1CCN(C(=O)c2ccc3c(c2)NC(=O)/C(=C\c2ccc(C)cc2)S3)CC1` the value was > 11 µM (inactive); for `Cc1cc(C)c2c(c1)C1C=CCC1C(c1ccc(S(=O)(=O)N3CCOCC3)cc1)N2` (stereo not drawn), > 11 µM (inactive). As for `CC(=NCCN1CCCCC1)c1c(O)n(-c2ccc(Cl)cc2)c(=O)[nH]c1=O`, the EC50 is > 11 µM (inactive). Consider `CN(C)[C@@H]1C(=O)C(C(N)=O)=C(O)[C@@]2(O)C(=O)C3=C(O)c4c(O)cccc4[C@@](C)(O)C3[C@H](O)C12` (stereo partly drawn), for which the pEC50 was 5.13.

For the compound `COc1ccc(C2C(C#N)=C(N)OC3=C2C(=O)CC(C)(C)C3)cc1Cn1nc(C)c([N+](=O)[O-])c1C` (stereo not drawn), the EC50 is > 11 µM (inactive). As for `Cc1cc(/C=C2\SC(=S)N(Cc3ccco3)C2=O)c(C)n1-c1cccnc1`, the EC50 is > 11 µM (inactive). Same read-out and setting: the value for `COc1cc2c(cc1OC)C(c1ccc(-c3ccc(Cl)cc3Cl)o1)=NCC2` was > 11 µM (inactive). On to `CC(C)C1Nc2ccc(S(N)(=O)=O)cc2C2C=CCC21` (stereo not drawn), for which the EC50 was > 11 µM (inactive).

With `C=CCNC(=S)Nc1cc(Cl)ccc1OC`, the EC50 is > 11 µM (inactive). In the case of `COCCN1C(=O)/C(=C/c2c(OC)cc(OC)cc2OC)C(=O)N(c2ccccc2)C1=O`, the EC50 was > 11 µM (inactive). With `CC(=O)c1ccc(C(=O)Nc2sc3c(c2C(N)=O)CCN(Cc2ccccc2)C3)cc1`, the EC50 is > 11 µM (inactive). On the same count and under the same terms, for `COc1ccc(CCCc2nc3ccccc3[nH]2)cc1` the value was > 11 µM (inactive); for `Cc1cccc(N(C)S(=O)(=O)c2nnc(NC(=O)c3ccco3)s2)c1`, > 11 µM (inactive). The same measure, in the same setting: for `CCN(CC)c1ccc(/C=C2\C(=O)NC(=S)N(C)C2=O)o1` the value was > 11 µM (inactive); for `C1=C(c2ccccc2)Nc2nnnn2C1c1cccs1` (stereo not drawn), > 11 µM (inactive); for `CC(C)C(C(=O)O)N1C(=O)/C(=C/C=C/c2ccco2)SC1=S` (stereo not drawn), > 11 µM (inactive).

Take `COCCCNC(=O)CCC(=O)NNc1nc2ccccc2c2nc(C)nn12`: the EC50 was > 11 µM (inactive). The same measure, in the same setting: for `CC1=NN(C(N)=S)C(=O)C1N=Nc1ccc(S(N)(=O)=O)cc1` (stereo not drawn) the value was > 11 µM (inactive). `CCN(CC)c1ccc(C=C2C(=O)OC(C)(C(C)(C)C)OC2=O)cc1` (stereo not drawn): the EC50 is > 11 µM (inactive). For `Cc1ccc(S(=O)(=O)NNC(=S)NC(=O)c2ccc([N+](=O)[O-])cc2)cc1`, the EC50 was > 11 µM (inactive). On the same count and under the same terms, the value for `CC1CC=C2C(C#N)=C(N)C(C#N)(C#N)C(c3cccs3)C2C1` (stereo not drawn) was > 11 µM (inactive); that for `Cc1[nH][nH]c(=O)c1N=Nc1ccc(S(N)(=O)=O)cc1` was > 11 µM (inactive).

In the case of `C=CCOc1ccc(C2C(C(=O)c3ccco3)=C(O)C(=O)N2c2nnc(C)s2)cc1` (stereo not drawn), the EC50 is > 11 µM (inactive). For the compound `Cc1nc(S/C(C(=O)O)=C2/C(=O)Nc3ccccc32)n[nH]1`, the EC50 was > 11 µM (inactive).

Take `Cc1cc(C(F)(F)F)c2c(N)c(C(=O)Nc3cc(C)on3)sc2n1`: the EC50 was > 11 µM (inactive).

As for `Cn1c(=O)cc2c3c(c(N4CCCCC4)ccc31)C(=O)c1ccccc1-2`, the EC50 is > 11 µM (inactive). Same read-out and setting: the value for `CCC(=O)Nc1cc(C)c(NC(=O)CCc2ccccc2)cn1` was > 11 µM (inactive); that for `COc1ccc(-n2nc(C(=O)c3cccs3)cc(-c3nc4ccccc4[nH]3)c2=N)cc1` was > 11 µM (inactive). In the case of `Nc1nonc1C(=O)NCCN=Cc1cc(Cc2ccccc2)cc(Br)c1O`, the EC50 is > 11 µM (inactive). Still for that read-out and setting: the value for `O=c1c(/C=C(\O)c2ccccc2)nc2ccccc2n1-c1ccccc1` was > 11 µM (inactive). `N#CC(C(=O)NCc1ccccc1)c1nc2ccccc2nc1N1CCCC1` (stereo not drawn): the EC50 was > 11 µM (inactive). Same read-out and setting: the value for `N=C1C(c2nc3ccccc3[nH]2)=C(O)CN1c1ccc(CC(=O)O)cc1` was > 11 µM (inactive); that for `Cc1ccc(S(=O)(=O)N(CCCN2CCCC2=O)Cc2cc3c(C)ccc(C)c3[nH]c2=O)cc1` was > 11 µM (inactive). The same measure, in the same setting: for `COC(=O)Cn1cc(C=C2C(=O)NC(=O)NC2=O)c2ccccc21` the value was > 11 µM (inactive). On the same count and under the same terms, for `O=C(NCC1CCCO1)c1ccc(CS(=O)(=O)Cc2ccc(F)cc2)o1` (stereo not drawn) the value was > 11 µM (inactive). Consider `N#CC1=C(N)OC2=C(C(=O)CCC2)C1c1ccc2c(c1)OCO2` (stereo not drawn), for which the EC50 was > 11 µM (inactive). For the compound `Cc1ccc(/C=N/Nc2ncnc3nc[nH]c23)cc1`, the EC50 was > 11 µM (inactive).

With `O=C(O)CC(C(=O)O)N1C(=O)/C(=C/C=C/c2ccco2)SC1=S` (stereo not drawn), the EC50 was > 11 µM (inactive). Same read-out and setting: for `CC1=CC(C#N)(C#N)C(C#N)(C#N)C(c2ccccc2)N1` (stereo not drawn) the value was > 11 µM (inactive).

Source of the values: PubChem BioAssay AID1959 (Broad Institute, 2009).
